Laboratory results reported in patent US20060121449A1, “Method for selection of compounds which inhibit clonal cell growth and use thereof” (priority 2002, published 2006).
Entries after “also recorded” stand apart in the source; their conditions may differ.

What was measured:
[1] = system: polyoma virus transformed BHK21/c13 cells, clone S100T1; assay: Clonal test: clonal growth of S100T1 cells in soft agar (Exp 2, 4, 6, 15, 16); type: cell-based, hamster
Ehrlich ascites tumour = details: Exp 18
Experimental: Tumour cells harvested from ascitic mouse were mainly solitary.
The experiment describes transplantation of the malignant mouse Ehrlich ascites tumour to two adult male mice (NMRI/Bom). Each of them received 100000 cells intraperitonally. One mouse was treated two times a week with 4-OH-OPB intraperitonally.
Cells were injected 90 minutes after the addition of 4-OH-OPB to the suspension. The control received the same cell suspension without 4-OH-OPB.
At the same time, dilutions of 4-OH-OPB were injected intraperitonally to the transplanted mice in order to find the smallest active dose.
The cells from ascites in the untreated control mouse was frozen on serum with 10% DMSO. The cells were thawed in water of 37° C., diluted in serum, and pelleted by low speed centrifugation after the addition of 2 ml FBS, to remove DMSO.
Each animal received such cells suspended in portions of 1 ml in RPMI (pH˜6.9).
The frozen and thawed Ehrlich ascites cells are diluted in a volume of 1 ml RPMI (pH˜6.9) for each animal. No calf serum was added to the medium to avoid immunisation of the mice.
Cell number: 90000 tumour cells in 0.7 ml RPMI were injected intraperitonally to each animal.
The total cell number in the ampoule was 7.5 million cells. The cells were thawed, and 2 ml FBS was added before low speed centrifugation. […] Than separate vessels were prepared for each animal. The cell tube for animal number 3 received Colchicine as indicated in the table on day 0 one hour before the cells were injected.
After mixing the same volume was transferred from this tube to the last tube.
The content of the last two tubes was injected intraperitonally to each of the mice number 1 and 2 respectively.

[2] = system: polyoma virus transformed BHK21/c13 cells, line S100T1; assay: Collocation inhibition test: clonal growth in sparsely and densely seeded areas of a cell density gradient of S100T1 cells in soft agar (Exp 13, 17, 19-26); details: for Significance: Exp 17 day 14;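 for Clonal growth, H high density area of cell gradient, High: grades rise with clonal growth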;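 for Clonal growth, H high density area of cell gradient, Low: grades rise with clonal growth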;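 for Clonal growth, H high density area of cell gradient, Medium: grades rise with clonal growth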;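 for Clonal growth, L low density area of cell gradient, High: grades rise with clonal growth and minus or plus-minus means none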;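 for Clonal growth, L low density area of cell gradient, Low: grades rise with clonal growth and minus or plus-minus means none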;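 for Clonal growth, L low density area of cell gradient, Medium: grades rise with clonal growth and minus or plus-minus means none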;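 for all read-outs here: soft agar cultures in 24-well plates with a cell density gradient in the top layer, compounds applied from DMSO stocks, clonal growth scored in sparse versus dense areas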
Experimental: The cells should be grown in a top agar layer to avoid growth on the bottom surface. […] Both densely seeded and sparsely seeded areas were photographed.
Cells: The polyoma virus transformed offspring of BHK21/c13, S100T1, was grown on 75 cm^2 flasks on Eagles medium with 5% foetal calf serum. […] Foetal calf serum (0.7 ml) was added to each harvest. After low speed centrifugation the supernatant was discarded and the cells were dispersed in 1 ml FBS.
The concentration of ultra low gelling temperature agarose (Sigma) of the top agar layer with cells was also 0.8%. […] The addition of cells was performed at the same side of the wells in order to create similar cell density gradients. Finally the top layer agar was consolidated in the refrigerator.
After that it was incubated at 37 degrees in 5% CO2 atmosphere.
Agar cultures were prepared in Falcon 24 well tissue culture plate. Each well contained two agar layers of 0.3 ml.
Agar cultures were prepared in wells of Falcon 24 well tissue culture plate. Each contained two agar layers of 0.3 ml. […] The medium contained Eagles MEM and 10% foetal bovine serum (FBS).
The compounds were first solved in DMSO in 20 mM concentration and then diluted in medium. The top layer needed 60-90 minutes in the refrigerator for solidification before incubation in 37° C. with 5% CO2 atmosphere.
In this experiment the inhibitor was added to the bottom layer in order to get an easier way for making the cell density gradient. One side of the Falcon 24 well plate was elevated 12 degrees in the refrigerator for 60-90 minutes to solidify the bottom layer in an oblique position When then solidifying the cell containing top soft agar layer in horizontal position, the cell gradient constantly became good across the well. […] Another 90 minutes were spent in the refrigerator to consolidate the soft agar layer with cells in a horizontal position. Both layers contained 0.8% agarose, Eagles MEM and 10% FBS.
Tilting the plate 12 degrees when solidifying the bottom layer with the drug and casting the top layer with cells horizontally made a stable cell gradient.
The indicated compounds were added to soft agar cultures of the polyoma virus transformed cell line S100T1 of BHK21/c13 cells (Table 1). Agar cultures were prepared in wells of a Falcon 24 well tissue culture plate. The wells contained two agar layers of 0.3 ml. […] The bottom medium was identical, but without cells.
The compounds were first solved in DMSO in 20 mM concentration and then diluted in bottom medium. The agar layers needed 60-90 minutes in the refrigerator for consolidation before incubation at 37° C. in 5% CO2 atmosphere.

[3] = Exp 13, 4-OH-OPB 1-3 μM, Colchicine 0.01-0.1 μM
[4] = Exp 13, High inhibitor conc. (Colchicine 100 nM), H: high cell density area
[5] = Exp 13, High inhibitor conc. (Colchicine 100 nM), L: low cell density area
[6] = Exp 13, Low inhibitor conc. (4-OH—OPB 1 μM, Colchicine 10 nM), H: high cell density area
[7] = Exp 13, Low inhibitor conc. (4-OH—OPB 1 μM, Colchicine 10 nM), L: low cell density area
[8] = Exp 13, Medium inhibitor conc. (4-OH—OPB 3 μM, Colchicine 33 nM), H: high cell density area
[9] = Exp 13, Medium inhibitor conc. (4-OH—OPB 3 μM, Colchicine 33 nM), L: low cell density area
[10] = preliminary results, Exp 13-18, 21-26, high concentration
[11] = preliminary results, Exp 13-18, 21-26, low concentration
[12] = preliminary results, Exp 13-18, 21-26, medium concentration

For `COc1cc2c(c(OC)c1OC)-c1ccc(OC)c(=O)cc1[C@@H](NC(C)=O)CC2` [Colchicine, reference compound], the “Effect on clonal growth at 0.01-0.1 μM” value ([1]; Exp 15, 32000 S100T1 cells/well) was “did not inhibit clonal growth”, the “Colony inhibiting activity for dosage within a range that might be therapeutic” value ([1]; Exp 16, about 40000 S100T1 cells/well) was “the same activity possibly existed” and the Significance ([1]; Exp 16 day 14, Colchicine No 1 (lot 60K1932, solved in DMSO 8 days beforehand, stored frozen), 0.1 μM) was “doubtful”. The Growth ([1]; Exp 16 day 14, Colchicine No 1 (lot 60K1932, solved in DMSO 8 days beforehand, stored frozen), 0.1 μM in wells) was “(+”, the Significance ([1]; Exp 16 day 14, Colchicine No 1 (lot 60K1932, solved in DMSO 8 days beforehand, stored frozen), 1 μM) was “doubtful” and the Growth ([1]; Exp 16 day 14, Colchicine No 1 (lot 60K1932, solved in DMSO 8 days beforehand, stored frozen), 1 μM in wells) was “(+”. The Growth ([1]; Exp 16 day 14, Colchicine No 2 (lot 60K1932, solved in DMSO the same day), 0.1 μM in wells) was “(+”, the Significance ([1]; Exp 16 day 14, Colchicine No 2 (lot 60K1932, solved in DMSO the same day), 0.1 μM, ” = as line above) was “” and doubtful” and the Significance ([1]; Exp 16 day 14, Colchicine No 2 (lot 60K1932, solved in DMSO the same day), 1 μM) was “possible”. The Growth ([1]; Exp 16 day 14, Colchicine No 2 (lot 60K1932, solved in DMSO the same day), 1 μM in wells) was “(+)”, the Significance ([1]; Exp 16 day 14, Colchicine No 3 (lot 28H1229, solved in DMSO the same day), 0.1 μM) was “possible” and the Growth ([1]; Exp 16 day 14, Colchicine No 3 (lot 28H1229, solved in DMSO the same day), 0.1 μM in wells) was “(+)”. For the same molecule, the Growth ([1]; Exp 16 day 14, Colchicine No 3 (lot 28H1229, solved in DMSO the same day), 0.22 μM in wells) was “(+)”, the Significance ([1]; Exp 16 day 14, Colchicine No 3 (lot 28H1229, solved in DMSO the same day), 0.22 μM, ” = as line above) was “” and possible” and the Growth ([1]; Exp 16 day 14, Colchicine No 4 (lot 28H1229, solved in DMSO the same day), 0.46 μM in wells) was “(+)”. The Significance ([1]; Exp 16 day 14, Colchicine No 4 (lot 28H1229, solved in DMSO the same day), 0.46 μM, ” = as line above) was “” and possible”, the Significance ([1]; Exp 16 day 14, Colchicine No 4 (lot 28H1229, solved in DMSO the same day), 1 μM) was “probable” and the Growth ([1]; Exp 16 day 14, Colchicine No 4 (lot 28H1229, solved in DMSO the same day), 1 μM in wells) was “(+))”. The Significance ([1]; Exp 16 day 21, Colchicine No 1 (lot 60K1932, solved in DMSO 8 days beforehand, stored frozen), 0.1 μM) was “no”, the Growth ([1]; Exp 16 day 21, Colchicine No 1 (lot 60K1932, solved in DMSO 8 days beforehand, stored frozen), 0.1 μM in wells) was “+” and the Significance ([1]; Exp 16 day 21, Colchicine No 1 (lot 60K1932, solved in DMSO 8 days beforehand, stored frozen), 1 μM) was “doubtful”. The Growth ([1]; Exp 16 day 21, Colchicine No 1 (lot 60K1932, solved in DMSO 8 days beforehand, stored frozen), 1 μM in wells) was “(+”, the Significance ([1]; Exp 16 day 21, Colchicine No 2 (lot 60K1932, solved in DMSO the same day), 0.1 μM) was “doubtful” and the Growth ([1]; Exp 16 day 21, Colchicine No 2 (lot 60K1932, solved in DMSO the same day), 0.1 μM in wells) was “(+”. The Significance ([1]; Exp 16 day 21, Colchicine No 2 (lot 60K1932, solved in DMSO the same day), 1 μM) was “possible”, the Growth ([1]; Exp 16 day 21, Colchicine No 2 (lot 60K1932, solved in DMSO the same day), 1 μM in wells) was “(+)” and the Growth ([1]; Exp 16 day 21, Colchicine No 3 (lot 28H1229, solved in DMSO the same day), 0.1 μM in wells) was “(+”. For the same molecule, the Significance ([1]; Exp 16 day 21, Colchicine No 3 (lot 28H1229, solved in DMSO the same day), 0.1 μM, ” = as line above) was “” and doubtful”, the Significance ([1]; Exp 16 day 21, Colchicine No 3 (lot 28H1229, solved in DMSO the same day), 0.22 μM) was “doubtful” and the Growth ([1]; Exp 16 day 21, Colchicine No 3 (lot 28H1229, solved in DMSO the same day), 0.22 μM in wells) was “(+”. For the same molecule, the Significance ([1]; Exp 16 day 21, Colchicine No 4 (lot 28H1229, solved in DMSO the same day), 0.46 μM) was “possible”, the Growth ([1]; Exp 16 day 21, Colchicine No 4 (lot 28H1229, solved in DMSO the same day), 0.46 μM in wells) was “(+)” and the Growth ([1]; Exp 16 day 21, Colchicine No 4 (lot 28H1229, solved in DMSO the same day), 1 μM in wells) was “(+”. The Significance ([1]; Exp 16 day 21, Colchicine No 4 (lot 28H1229, solved in DMSO the same day), 1 μM, ” = as line above) was “” and doubtful”, the “tumour in abdominal wall, findings on section” value (Ehrlich ascites tumour; at killing, control 2 × 3 mm tumour) was “Lens sized” and the “ascites with Ehrlich cells, findings on section” value (Ehrlich ascites tumour; at killing, control 4 ml) was 1.5 mL. The “day 14 status” value (Ehrlich ascites tumour; day 14 after ip transplantation, mouse 1 killed, mice 2 and 3 marked '?') was “Ascites”, the “day 16 status” value (Ehrlich ascites tumour; day 16, killed because of signs of ascites) was “Ascites” and the “Rescue of mice from transplanted Ehrlich tumour” value (Ehrlich ascites tumour; high dose mixed with the transplanted cells before injection) was “did not provide complete protection against the development of transplantable Ehrlich tumour; also recorded: not rescue the animal either. The conclusion is”. The “weight gain in %” value (Ehrlich ascites tumour; one mouse each, ip: mouse 1 4-OH—OPB from day 1, mouse 2 Etoposide + 4-OH—OPB from day 1, mouse 3 Colchicine from day 0, control mouse 42.4) was 23.8%, the “Growth in locations with high cell density” value [2, 3] was “did not inhibit clonal growth” and the “Growth in locations with low cell density (sparsely seeded cells)” value [2, 3] was “full inhibition on clonal growth of sparsely seeded cells; also recorded: inhibited growth in locations with low cell density even when using low doses”. The “Growth, summary of results after 3 days incubation” value (“Growth … after 3 days incubation” for short) [2, 4] was “+++”, the “Growth, summary of results after 4 days incubation” value (“Growth … after 4 days incubation” below) [2, 4] was “+++” and the “Growth … after 3 days incubation” value [2, 5] was “−”. The “Growth … after 4 days incubation” value [2, 5] was “−”, the “Growth … after 3 days incubation” value [2, 6] was “+++” and the “Growth … after 4 days incubation” value [2, 6] was “+++”. For the same molecule, the “Growth … after 3 days incubation” value [2, 7] was “−”, the “Growth … after 4 days incubation” value [2, 7] was “+−” and the “Growth … after 3 days incubation” value [2, 8] was “+++”. The “Growth … after 4 days incubation” value [2, 8] was “+++”, the “Growth … after 3 days incubation” value [2, 9] was “−” and the “Growth … after 4 days incubation” value [2, 9] was “−”. For the same molecule, the “Effect on growth in high- and low-density areas” value ([2]; Exp 17, 144000 S100T1 cells/well) was “did not inhibit the high-density areas significantly; also recorded: no complete clonal inhibition could be observed”, the “Clonal growth, results read on the day 14” value (shortened to “Clonal growth, results read”) ([2]; Exp 17, a: close to densely seeded cell areas, High: Colchicine 1, Podophyllotoxin 3, Etoposide 200, 4-OH—OPB 6.7 μM in wells, DMSO 29.2 μl) was “(+)” and the “Clonal growth, results read” value ([2]; Exp 17, a: close to densely seeded cell areas, Low: Colchicine 0.1, Podophyllotoxin 0.3, Etoposide 20, 4-OH—OPB 0.67 μM in wells, DMSO 1.16 μl) was “++”. The “Clonal growth, results read” value ([2]; Exp 17, a: close to densely seeded cell areas, Medium: Colchicine 0.3, Podophyllotoxin 0.9, Etoposide 60, 4-OH—OPB 2 μM in wells, DMSO 6.8 μl) was “++”, the “Clonal growth, results read” value ([2]; Exp 17, b: sparsely seeded areas in the same agar culture, High: Colchicine 1, Podophyllotoxin 3, Etoposide 200, 4-OH—OPB 6.7 μM in wells, DMSO 29.2 μl) was “(+)” and the “Clonal growth, results read” value ([2]; Exp 17, b: sparsely seeded areas in the same agar culture, Low: Colchicine 0.1, Podophyllotoxin 0.3, Etoposide 20, 4-OH—OPB 0.67 μM in wells, DMSO 1.16 μl) was “++”. For the same molecule, the “Clonal growth, results read” value ([2]; Exp 17, b: sparsely seeded areas in the same agar culture, Medium: Colchicine 0.3, Podophyllotoxin 0.9, Etoposide 60, 4-OH—OPB 2 μM in wells, DMSO 6.8 μl) was “++”, the “Clones in sparsely seeded locations of the agar” value ([2]; Exp 17, compared with 4-OH-OPB) was “allow the growth of a few small clones in sparsely seeded locations of the agar; also recorded: to allow the growth of a few small clones in sparsely” and the Significance ([2]; a: close to densely seeded cell areas, High: Colchicine 1, Podophyllotoxin 3, Etoposide 200, 4-OH—OPB 6.7 μM in wells, DMSO 29.2 μl) was “Possible”. For the same molecule, the Significance ([2]; a: close to densely seeded cell areas, Low: Colchicine 0.1, Podophyllotoxin 0.3, Etoposide 20, 4-OH—OPB 0.67 μM in wells, DMSO 1.16 μl) was “No”, the Significance ([2]; a: close to densely seeded cell areas, Medium: Colchicine 0.3, Podophyllotoxin 0.9, Etoposide 60, 4-OH—OPB 2 μM in wells, DMSO 6.8 μl) was “No” and the Significance ([2]; b: sparsely seeded areas, High: Colchicine 1, Podophyllotoxin 3, Etoposide 200, 4-OH—OPB 6.7 μM in wells, DMSO 29.2 μl) was “Possible”. For the same molecule, the Significance ([2]; b: sparsely seeded areas, Low: Colchicine 0.1, Podophyllotoxin 0.3, Etoposide 20, 4-OH—OPB 0.67 μM in wells, DMSO 1.16 μl) was “No”, the Significance ([2]; b: sparsely seeded areas, Medium: Colchicine 0.3, Podophyllotoxin 0.9, Etoposide 60, 4-OH—OPB 2 μM in wells, DMSO 6.8 μl) was “No” and the “Clonal growth, H high density area of cell gradient, High” value [2, 10] was “+++”. For the same molecule, the “Clonal growth, L low density area of cell gradient, High” value [2, 10] was “−”, the “Clonal growth, H high density area of cell gradient, Low” value [2, 11] was “+++” and the “Clonal growth, L low density area of cell gradient, Low” value [2, 11] was “−”. For the same molecule, the “Clonal growth, H high density area of cell gradient, Medium” value [2, 12] was “+++”, the “Clonal growth, L low density area of cell gradient, Medium” value [2, 12] was “−” and the “Effect on cell cloning in soft agar” value ([2]; preliminary results, in words) was “Growth in high density areas; also recorded: No growth in low density areas”.
